Data: PMC10272112 (Nature Communications, 2023)

Assays:
Assay in all cases: Chemoproteomic competition pulldown assay (co-competed CoREST partner)
Type in all cases: binding
HMG20A = test system: HMG20A
Protocol: (§1) To identify proteins directly bound by lipoic acid, we employed a chemoproteomic competition assay. Briefly, (R/S)-LA was immobilized on sepharose beads via an amidation reaction to form an affinity matrix (abbreviated as iL; Fig. 1a). This affinity matrix can be incubated with cell lysate to pull down potential LA or LM target proteins and identify these targets via bottom-up proteomics. In a competition assay, free LA or LM were incubated with lysate at different concentrations before pulling down and quantifying target proteins. […] (Fig. 1b, see “Methods” for details). […] The lysate buffer used in this assay contains 1 mM DTT to mimic the intracellular reductive milieu and to reduce lipoic acid and LM. […] Additional competition assays performed in lung adenocarcinoma cell A549 lysate also identified HDAC1, HDAC2, and HDAC6 as targets (Supplementary Fig. 1b). Amongst the three cell lines tested, HDACs were the only confidently identified targets across the 1500–3000 proteins quantified in these assays. […] We validated the results by analogous pulldown competition assays using two other affinity matrices prepared via the immobilization of either the HDAC inhibitor Quisinostat (iQ) and an analog of the class IIa HDAC inhibitor Bürli’s 31[14] (iC)[12]. We have previously shown that these affinity matrices specifically bind to the active sites of HDACs and have used them for HDACi selectivity profiling. Indeed, binding of (R/S)-LA and (R/S)-LM to HDAC1, HDAC2, HDAC3, HDAC6, and, to a lesser extent, HDAC8 was confirmed in these assays (Supplementary Fig. 1c, d). No binding to class IIa HDACs or the recently discovered common HDAC inhibitor off-target MBLAC2 was observed (Supplementary Fig. 1e)[12]. […] This observation might reflect electrostatic repulsion between the HDAC10 active site gate-keeper glutamic acid residues[15],[16] and the terminal carboxylic acid of LA.
(§2) To assess the degree of protein depletion from lysates by the affinity matrix, a second pulldown (PDPD) with fresh beads was performed using the unbound protein fraction from the vehicle control flow through. The beads were washed (1 × 1 mL of lysis buffer without inhibitors and only 0.4% Igepal, 2 × 2 mL of lysis buffer without inhibitors and only 0.2% Igepal), and captured proteins were denatured with 8 M urea buffer, alkylated with 55 mM chloroacetamide and digested with Trypsin according to standard procedures. The resulting peptides were desalted on a C18 filter plate (Sep-Pak® tC18 µElution Plate, Waters), vacuum dried, and stored at −20 °C until LC–MSMS measurement.
(§3) For the competition assays, relative binding was calculated based on the protein intensity ratio to the DMSO control for every single inhibitor concentration. EC50 values were derived from a four-parameter log-logistic regression with variable slope (constrain: bottom > 0). The obtained EC50 values were multiplied with a protein-dependent correction factor (cf), resulting in the apparent Kd value (Kd^app). The correction factor is determined by calculating the ratio of the protein intensity of two consecutive pulldowns of the vehicle control sample[13]. Targets of the inhibitors were annotated manually according to published procedures[12],[46],[47]. […] Additionally, the number of unique peptides and MSMS counts per condition were taken into account. Positive target binding across several independent experiments performed with different cell lysates further substantiated our confidence for a true positive drug-target binding event.

KDM1A = test system: KDM1A
Protocol: as §1, §2, §3

HMG20B = conditions: iL, MV4-11 lysate
Protocol: as §1, §2, §3

GSE1 = test system: GSE1
Protocol: as §1, §2, §3

[1] = iL, MV4-11 lysate, log10 M -3.52288
[2] = iL, MV4-11 lysate, log10 M -4.52288
[3] = iL, MV4-11 lysate, log10 M -5.52288
[4] = iL, MV4-11 lysate, log10 M -6.52288
[5] = iQ, SW620 lysate, log10 M -3.52288
[6] = iQ, SW620 lysate, log10 M -4.52288
[7] = iQ, SW620 lysate, log10 M -5.52288
[8] = iQ, SW620 lysate, log10 M -6.52288

relative binding vs DMSO (HMG20A; [1]): 0.1398
relative binding vs DMSO (HMG20A; iL, MV4-11 lysate, log10 M -4): 0.1277
relative binding vs DMSO (HMG20A; [2]): 0.1925
relative binding vs DMSO (HMG20A; iL, MV4-11 lysate, log10 M -5): 0.5136
relative binding vs DMSO (HMG20A; [3]): 0.6563
relative binding vs DMSO (HMG20A; iL, MV4-11 lysate, log10 M -6): 0.8243
relative binding vs DMSO (HMG20A; [4]): 0.9555
relative binding vs DMSO (HMG20A; iL, MV4-11 lysate, log10 M -7): 1.012
relative binding vs DMSO (HMG20A; [5]): 0.03313
relative binding vs DMSO (HMG20A; iQ, SW620 lysate, log10 M -4): 0.1846
relative binding vs DMSO (HMG20A; [6]): 0.4151
relative binding vs DMSO (HMG20A; iQ, SW620 lysate, log10 M -5): 0.6118
relative binding vs DMSO (HMG20A; [7]): 0.969
relative binding vs DMSO (HMG20A; iQ, SW620 lysate, log10 M -6): 0.8792
relative binding vs DMSO (HMG20A; [8]): 0.8032
relative binding vs DMSO (HMG20A; iQ, SW620 lysate, log10 M -7): 1.062
relative binding vs DMSO (KDM1A; [1]): 0.06889
relative binding vs DMSO (KDM1A; iL, MV4-11 lysate, log10 M -4): 0.07597
relative binding vs DMSO (KDM1A; [2]): 0.1867
relative binding vs DMSO (KDM1A; iL, MV4-11 lysate, log10 M -5): 0.4972
relative binding vs DMSO (KDM1A; [3]): 0.6394
relative binding vs DMSO (KDM1A; iL, MV4-11 lysate, log10 M -6): 0.7472
relative binding vs DMSO (KDM1A; [4]): 0.8335
relative binding vs DMSO (KDM1A; iL, MV4-11 lysate, log10 M -7): 0.9817
relative binding vs DMSO (KDM1A; [5]): 0.09916
relative binding vs DMSO (KDM1A; iQ, SW620 lysate, log10 M -4): 0.186
relative binding vs DMSO (KDM1A; [6]): 0.3209
relative binding vs DMSO (KDM1A; iQ, SW620 lysate, log10 M -5): 0.6955
relative binding vs DMSO (KDM1A; [7]): 0.8479
relative binding vs DMSO (KDM1A; iQ, SW620 lysate, log10 M -6): 0.9866
relative binding vs DMSO (KDM1A; [8]): 0.7392
relative binding vs DMSO (KDM1A; iQ, SW620 lysate, log10 M -7): 0.6643
relative binding vs DMSO (HMG20B; log10 M -3.52288): 0.0242
relative binding vs DMSO (HMG20B; log10 M -4): 0.0521
relative binding vs DMSO (HMG20B; log10 M -4.52288): 0.1443
relative binding vs DMSO (HMG20B; log10 M -5): 0.4724
relative binding vs DMSO (HMG20B; log10 M -5.52288): 0.6292
relative binding vs DMSO (HMG20B; log10 M -6): 0.8935
relative binding vs DMSO (HMG20B; log10 M -6.52288): 0.8513
relative binding vs DMSO (HMG20B; log10 M -7): 1.055
relative binding vs DMSO (GSE1; [1]): 0.03208
relative binding vs DMSO (GSE1; iL, MV4-11 lysate, log10 M -4): 0.05802
relative binding vs DMSO (GSE1; [2]): 0.1417
relative binding vs DMSO (GSE1; iL, MV4-11 lysate, log10 M -5): 0.4933
relative binding vs DMSO (GSE1; [3]): 0.6793
relative binding vs DMSO (GSE1; iL, MV4-11 lysate, log10 M -6): 0.8351
relative binding vs DMSO (GSE1; [4]): 0.9265
relative binding vs DMSO (GSE1; iL, MV4-11 lysate, log10 M -7): 0.8883
relative binding vs DMSO (GSE1; [5]): 0.1386
relative binding vs DMSO (GSE1; iQ, SW620 lysate, log10 M -4): 0.1278
relative binding vs DMSO (GSE1; [6]): 0.3991
relative binding vs DMSO (GSE1; iQ, SW620 lysate, log10 M -5): 0.559
relative binding vs DMSO (GSE1; [7]): 0.8469
relative binding vs DMSO (GSE1; iQ, SW620 lysate, log10 M -6): 1.003
relative binding vs DMSO (GSE1; [8]): 0.8631
relative binding vs DMSO (GSE1; iQ, SW620 lysate, log10 M -7): 0.9076
Compound: NC(=O)CCCCC1CCSS1 (racemic) [(R/S)-LM, (R/S)-lipoamide]
